Measured values published in PubChem BioAssay (NCI).
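Cultured in 96-well plates, cells were exposed to test compound for 48 hours across five concentrations. GI50: concentration for 50% inhibition of growth. TGI: concentration producing complete growth inhibition.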

Experiments:
Test in all cases: growth of human tumour cells (NCI), 48 h
LOX IMVI melanoma = system: LOX IMVI melanoma
A549 NSCLC = system: A549 NSCLC
KM12 colon = system: KM12 colon
SK-MEL-5 melanoma = system: SK-MEL-5 melanoma
EKVX NSCLC = system: EKVX NSCLC
HCT-15 colon = system: HCT-15 colon
IGROV1 ovarian = system: IGROV1 ovarian
OVCAR-3 ovarian = system: OVCAR-3 ovarian
MDA-MB-231 breast = system: MDA-MB-231 breast
DU-145 prostate = system: DU-145 prostate

| Structure (SMILES) | TGI (LOX IMVI melanoma) | TGI (A549 NSCLC) | TGI (KM12 colon) | TGI (SK-MEL-5 melanoma) | TGI (EKVX NSCLC) | TGI (HCT-15 colon) | TGI (IGROV1 ovarian) | TGI (OVCAR-3 ovarian) | GI50 (LOX IMVI melanoma) | GI50 (A549 NSCLC) | GI50 (KM12 colon) | GI50 (SK-MEL-5 melanoma) | GI50 (EKVX NSCLC) | GI50 (HCT-15 colon) | GI50 (IGROV1 ovarian) | GI50 (OVCAR-3 ovarian) | TGI (MDA-MB-231 breast) | TGI (DU-145 prostate) | GI50 (MDA-MB-231 breast) | GI50 (DU-145 prostate) |
| --- | --- | --- | --- | --- | --- | --- | --- | --- | --- | --- | --- | --- | --- | --- | --- | --- | --- | --- | --- | --- |
| CC(C)=NNC(=S)NC12CC3CC(CC(C3)C1)C2 | > 100 µM | > 100 µM | > 100 µM | > 100 µM | > 100 µM | > 100 µM | > 100 µM | > 100 µM | – | – | – | – | – | – | – | – | – | – | – | – |
| N#CCc1nnc(N)o1 | > 100 µM | > 100 µM | > 100 µM | – | > 100 µM | > 100 µM | > 100 µM | > 100 µM | – | – | – | – | – | – | – | – | – | – | – | – |
| CC[PH+](CC)CC.CC[PH+](CC)CC.[Au] | 24.2 µM | 53.1 µM | 33.3 µM | 17.5 µM | 11.5 µM | 25.7 µM | 34.3 µM | 33.2 µM | 8.67 µM | 22.8 µM | 16.3 µM | 3.5 µM | 5.83 µM | 6.24 µM | 14.5 µM | 18.2 µM | – | – | – | – |
| CC1=C(C(=O)CC(=O)C(=O)Nc2ccc(C)c(C)c2)Sc2ccccc2N1 | > 100 µM | > 100 µM | > 100 µM | > 100 µM | > 100 µM | > 100 µM | > 100 µM | > 100 µM | – | – | – | – | – | – | – | – | – | – | – | – |
| O=C(O)Cc1ccc(N=Nc2c(O)c(C(=O)O)cc3ccccc23)cc1 | – | > 100 µM | > 100 µM | > 100 µM | > 100 µM | > 100 µM | > 100 µM | > 100 µM | – | – | – | – | – | – | – | – | > 100 µM | > 100 µM | – | – |
| CCOC(=O)C1SC(=Nc2ccc(Cl)cc2Cl)N=C1C (configuration not stated) | > 100 µM | > 100 µM | > 100 µM | > 100 µM | > 100 µM | > 100 µM | > 100 µM | > 100 µM | – | – | – | – | – | – | – | – | – | – | – | – |
| Cn1cc(C2=C(c3cn(CCCCCO)c4ccccc34)C(=O)NC2=O)c2ccccc21 | > 19.4 µM | 24 µM | 16.1 µM | 6.82 µM | – | > 25 µM | 17.9 µM | 17.3 µM | 4.99 µM | 6.19 µM | 4.22 µM | 3.29 µM | – | 2.57 µM | 8.04 µM | 5.48 µM | > 24 µM | > 25 µM | 8.93 µM | 8.83 µM |
| NC(N)=N/N=C/c1c(-c2cccnc2)nc2sc(Cl)cn12 | 24.8 µM | 40.1 µM | 14.3 µM | 28.6 µM | 32.9 µM | 28.1 µM | 58.5 µM | 30.1 µM | 12.4 µM | 18.7 µM | 3.95 µM | 15.2 µM | 16.7 µM | 14.9 µM | 17.5 µM | 15.3 µM | 21.9 µM | – | 7.95 µM | – |
| O=C1CC(N2C(=O)/C(=C/C(Cl)=C\c3ccc([N+](=O)[O-])cc3)SC2=S)C(=O)N1c1ccc(O)cc1 (configuration not stated) | – | 11.3 µM | 4.64 µM | 3.66 µM | 11.7 µM | 1.95 µM | 2.68 µM | 1.96 µM | – | 3.11 µM | 1.83 µM | 1.92 µM | 3.25 µM | 0.472 µM | 1.2 µM | 0.604 µM | 5.06 µM | 3.37 µM | 2.14 µM | 1.72 µM |
| O=C1C(=O)N(c2ccc(Cl)cc2)C(=O)C(=Nc2cccc3c(=O)[nH][nH]c(=O)c23)C1c1nc2ccccc2o1 (configuration not stated) | > 100 µM | > 100 µM | > 100 µM | > 100 µM | > 100 µM | > 100 µM | > 100 µM | > 100 µM | – | – | – | – | – | – | – | – | – | – | – | – |
| CN(/N=C\c1ccnc2ccccc12)c1ccccc1 | 32.3 µM | 53.1 µM | 37.4 µM | 31.2 µM | 91.2 µM | 39.5 µM | > 100 µM | 44.2 µM | – | – | – | – | – | – | – | – | – | – | – | – |
| Cc1ccc(C2=Nc3ccccc3S(=O)C(c3ccc4c(c3)OCO4)C2)cc1 (configuration not stated) | 29.8 µM | > 100 µM | 57.8 µM | 29.2 µM | > 100 µM | – | > 100 µM | 69.4 µM | – | – | – | – | – | – | – | – | – | – | – | – |
| Cc1c2c(nn1-c1ccc(S(=O)(=O)NC(=S)NC(=O)c3ccccc3)cc1)-c1ccccc1CC2 | > 100 µM | > 100 µM | > 100 µM | 96.5 µM | – | > 100 µM | > 100 µM | 41.4 µM | 50.3 µM | 54.1 µM | 34.5 µM | 30.7 µM | – | 39.5 µM | > 100 µM | 13.7 µM | > 100 µM | > 100 µM | 42.5 µM | 23.9 µM |
| Cn1c(=O)c(Oc2ccc(F)cc2F)cc2cnc(NC3CCOCC3)nc21 | > 25 µM | > 25 µM | > 25 µM | > 25 µM | – | > 25 µM | > 25 µM | > 25 µM | > 25 µM | > 25 µM | > 25 µM | > 25 µM | – | > 25 µM | > 25 µM | > 25 µM | > 25 µM | > 25 µM | > 25 µM | > 25 µM |
| C=C1CC2(CCS(=O)(=O)c3ccccc32)OC1=O (configuration not stated) | 33.3 µM | 35.2 µM | 37.8 µM | 27 µM | 33.1 µM | 27.6 µM | 34.1 µM | 21 µM | – | – | – | – | – | – | – | – | – | – | – | – |
| CN(C)CCS(=O)(=O)Nc1cc(-c2ccc3ncc(C#N)c(Nc4ccc(F)c(Cl)c4)c3c2)cnc1Cl | 0.284 µM | 4.79 µM | – | 0.244 µM | 1.47 µM | – | 0.287 µM | 0.412 µM | 0.117 µM | 1.14 µM | – | 0.118 µM | 0.23 µM | – | 0.0777 µM | 0.13 µM | 0.629 µM | 2.11 µM | 0.185 µM | 0.293 µM |
| c1ccc2c(CNCCCCCCCCNCc3cccc4ccccc34)cccc2c1 | 2.52 µM | 5.41 µM | 3.24 µM | 3.32 µM | 18.8 µM | 3.38 µM | 16.2 µM | 22.5 µM | – | – | – | – | – | – | – | – | – | – | – | – |
| O=C(O)CN(c1ccc(F)cc1)S(=O)(=O)c1ccccc1 | > 100 µM | > 100 µM | > 100 µM | > 100 µM | > 100 µM | > 100 µM | > 100 µM | > 100 µM | – | – | – | – | – | – | – | – | – | – | – | – |
| OCC1CCCC1O (configuration not stated) | – | > 100 µM | > 100 µM | > 100 µM | – | > 100 µM | > 100 µM | > 100 µM | – | – | – | – | – | – | – | – | > 100 µM | > 100 µM | – | – |
